# Measurements from US11845752B2, “Substituted imidazo[1,5-a]pyrazines for the treatment of hepatitis B” (ALIGOS THERAPEUTICS, INC., priority 2020, dated 2023).
# Test system: HBV
# Test: HBV-DNA antiviral assay using HepG2.117 cells (intracellular HBV DNA by qPCR)
# Format: cell-based, HBV genotype D
# Settings: HBV DNA inhibition, 3 days incubation, read-out: EC50
# Method: The following assay procedure describes the HBV antiviral assay, using HepG2.117 cells, which carry a stably integrated genotype D HBV genome under the control of a Tet-off promoter, and intracellular HBV DNA quantification as endpoint. Cell viability is assessed in parallel by measuring the intracellular ATP content using ATPlite (Perkin Elmer).
# On day 0, HepG2.117 cells (which are maintained in routine cell culture with doxycycline present in the medium at a final concentration of 1 μg/mL) were seeded in 96-well plates (white with clear bottom) at a density of 2.0×10^4 cells/well (0.1 mL/well) in medium without doxycycline to induce pgRNA transcription and subsequent formation of HBV particles. The cells were incubated at 37° C. and 5% CO2.
# On day 1, medium was removed from each well, the test articles were diluted in culture medium without doxcycyline and 100 μL was added to cell culture wells (9 concentrations, 4-fold dilution). For each plate, 6 untreated (merely DMSO) wells were included. The final concentration of DMSO in the culture medium was 2%. Each plate was prepared in duplicate (one for HBV DNA extraction, one for ATPlite measurement). The cells were incubated at 37° C. and 5% CO2 for 3 days.
# On day 4, cell viability was assessed using ATPlite and cell lysates were prepared for HBV DNA extraction and subsequent quantification by qPCR.
# Medium was removed from each well and 100 μL of 0.33% NP-40 in H2O was added to each well. Plates were sealed, incubated at 4° C. for 5 mins, vortexed extensively and centrifuged briefly. Next, 35 μL of lysate was added to 65 μL QuickExtract DNA Extraction Solution (Epicentre) in a PCR plate for each well. PCR plate was incubated at 65° C. for 6 mins, 98° C. for 2 mins and finally cooled to 4° C. HBV DNA was then quantified by qPCR with HBV-specific primers and probes as specified in Table 1 using the Bio-Rad SSOAdvanced Universal Probes Supermix on a CFX96 machine (Bio-Rad). The PCR cycle program consisted of 95° C. for 3 mins, followed by 40 cycles at 95° C. for 10 sec and 60° C. for 30 sec.
# A DNA standard was prepared by dilution of an IDT gBlock corresponding to the amplicon with concentrations ranging from 10^2 to 10^8 copies/input (i.e. per 4 μL) and used to generate a standard curve by plotting Cq values vs. HBV DNA standard concentration. The quantity of HBV DNA in each sample was determined by interpolating from the standard curve.
# Cell viability was calculated as follows: % Cell viability=(luminescence value of test sample)/(average luminescence value of 2% DMSO control)×100%. HBV DNA inhibition was calculated as follows: 100−(HBV DNA copy number of test sample)/(average HBV DNA copy number of 2% DMSO control)×100%. No normalization to entecavir was required due to the excellent dynamic window of this assay. The CC50, EC50 and EC90 values were determined by dose-response curves fitted using non-linear regression.
row,SMILES,EC50
1,"CC1Cn2c(c(C(=O)NCc3ccccc3-c3ccncn3)n(-c3ccc4oc(N)nc4c3)c2=O)CN1C(=O)c1ccc(Br)c(Cl)c1 (single isomer, unassigned) [Compound 92b]",0.5 to 5 µM
2,"CC1Cn2c(c(C(=O)NCc3ccccc3-n3cc(N)cn3)n(-c3ccc(OC4CC4)cc3)c2=O)CN1C(=O)c1ccc(Br)c(Cl)c1 (single isomer, unassigned) [Compound 19a]",0.5 to 5 µM
3,"CC1Cn2c(c(C(=O)NCc3ccccc3-c3cc(N)cnn3)n(-c3ccc(OC4CC4)cc3)c2=O)CN1C(=O)c1ccc(Br)c(Cl)c1 (single isomer, unassigned) [Compound 42a]",0.5 to 5 µM
4,"CC1Cn2c(c(C(=O)NCc3ccccc3-c3ncccn3)n(-c3ccc(N4CCN(C)CC4)cc3)c2=O)CN1C(=O)c1ccc(Br)c(Cl)c1 (single isomer, unassigned) [Compound 21b]",0.05 to 0.5 µM
5,"CC1Cn2c(c(C(=O)NCc3ccccc3-c3ccncn3)n(-c3ccc(N4CCC5(CC4)CN(C)C5)cc3)c2=O)CN1C(=O)c1ccc(Br)c(C(F)(F)F)c1 (single isomer, unassigned) [Compound 80b]",0.05 to 0.5 µM
6,"CC1Cn2c(c(C(=O)NCc3ccccc3-c3cc(N)cnn3)n(-c3ccc(OC4CC4)cc3)c2=O)CN1C(=O)c1ccc(Br)c(C(F)(F)F)c1 (single isomer, unassigned) [Compound 43a]",0.5 to 5 µM
7,"CC1Cn2c(c(C(=O)NCc3c(F)cccc3-c3cccc(N)n3)n(-c3ccc(OC4CC4)cc3)c2=O)CN1C(=O)c1ccc(Br)c(C(F)(F)F)c1 (single isomer, unassigned) [Compound 36b]",< 0.05 µM
8,"CC1Cn2c(c(C(=O)NCc3c(F)cccc3-c3ccncn3)n(-c3ccc(OC4CC4)cc3)c2=O)CN1C(=O)c1ccc(Br)c(Cl)c1 (single isomer, unassigned) [Compound 2b, (R*)-7-(4-bromo-3-chlorobenzoyl)-2-(4-cyclopropoxyphenyl)-N-(2-fluoro-6-(pyrimidin-4-yl)benzyl)-6-methyl-3-oxo-2,3,5,6,7,8-hexahydroimidazo[1,5-a]pyrazine-1-carboxamide]",< 0.05 µM

# Same assay, conditions: Hepatitis B virus, HepG2.117, 72 h, HBV DNA inhibition, 3 days incubation, read-out: EC50
row,SMILES,EC50
1,"CC1Cn2c(c(C(=O)NCc3ccccc3-c3ccncn3)n(-c3ccc(N4CCO[C@H](C(F)(F)F)C4)cc3)c2=O)CN1C(=O)c1ccc(Br)c(C(F)(F)F)c1 (mixture of isomers) [Compound 52b, rac-(6R)-7-[4-bromo-3-(trifluoromethyl)benzoyl]-6-methyl-3-oxo-N-[(2-pyrimidin-4-ylphenyl)methyl]-2-[4-[(2S)-2-(trifluoromethyl)morpholin-4-yl]phenyl]-6,8-dihydro-5H-imidazo[1,5-a]pyrazine-1-carboxamide]",< 0.05 µM
2,"C[C@H]1Cn2c(c(C(=O)NCc3ccccc3-c3ncccn3)n(-c3ccc4nn(C[C@H](O)C(F)(F)F)cc4c3)c2=O)CN1C(=O)c1ccc(Br)c(C(F)(F)F)c1 (mixture of isomers) [Compound 107b, (6SR)-7-[4-bromo-3-(trifluoromethyl)benzoyl]-6-methyl-3-oxo-N-[(2-pyrimidin-2-ylphenyl)methyl]-2-[2-[(2S)-3,3,3-trifluoro-2-hydroxy-propyl]indazol-5-yl]-6,8-dihydro-5H-imidazo[1,5-a]pyrazine-1-carboxamide]",0.05 to 0.5 µM
3,"C[C@H](O)Cn1ncc2cc(-n3c(C(=O)NCc4ccccc4-c4ncccn4)c4n(c3=O)C[C@H](C)N(C(=O)c3ccc(Br)c(C(F)(F)F)c3)C4)ccc21 (mixture of isomers) [Compound 94b, (6SR)-7-[4-bromo-3-(trifluoromethyl)benzoyl]-2-[1-[(2S)-2-hydroxypropyl]indazol-5-yl]-6-methyl-3-oxo-N-[(2-pyrimidin-2-ylphenyl)methyl]-6,8-dihydro-5H-imidazo[1,5-a]pyrazine-1-carboxamide]",0.05 to 0.5 µM
4,CNc1ccnc(-c2ccccc2CNC(=O)c2c3n(c(=O)n2-c2ccc(OC4CC4)cc2)C[C@H](C)N(C(=O)c2ccc(Br)c(Cl)c2)C3)n1 (racemic) [Compound 26b],< 0.05 µM
5,"COc1cnn(-c2ccccc2CNC(=O)c2c3n(c(=O)n2-c2ccc(OC4CC4)cc2)CC(C)N(C(=O)c2ccc(Br)c(Cl)c2)C3)c1 (single isomer, unassigned) [Compound 17a, 7-(4-bromo-3-chloro-benzoyl)-2-[4-(cyclopropoxy)phenyl]-N-[[2-(4-methoxypyrazol-1-yl)phenyl]methyl]-6-methyl-3-oxo-6,8-dihydro-5H-imidazo[1,5-a]pyrazine-1-carboxamide]",0.05 to 0.5 µM
6,"O=C(NCc1ccccc1)c1c2n(c(=O)n1-c1ccc(N3CCOC4(CC4)C3)cc1)CCN(C(=O)c1ccc(Br)c(Cl)c1)C2 [Compound 120, N-benzyl-7-(4-bromo-3-chloro-benzoyl)-2-[4-(4-oxa-7-azaspiro[2.5]octan-7-yl)phenyl]-3-oxo-6,8-dihydro-5H-imidazo[1,5-a]pyrazine-1-carboxamide]",0.05 to 0.5 µM
7,"CC1Cn2c(c(C(=O)NCc3c(F)cccc3-c3cccc(N)n3)n(-c3ccc(OC4CC4)cc3)c2=O)CN1C(=O)c1ccc(Br)c(C(F)(F)F)c1 (single isomer, unassigned) [Compound 36a]",< 0.05 µM
8,"C[C@@H]1Cn2c(c(C(=O)NCc3ccccc3-c3ccncn3)n(-c3ccc(N4CCN(C)[C@H](C(F)(F)F)C4)cc3)c2=O)CN1C(=O)c1ccc(Br)c(C(F)(F)F)c1 (mixture of isomers) [Compound 87a, (6RS)-7-[4-bromo-3-(trifluoromethyl)benzoyl]-6-methyl-2-[4-[(3S)-4-methyl-3-(trifluoromethyl)piperazin-1-yl]phenyl]-3-oxo-N-[(2-pyrimidin-4-ylphenyl)methyl]-6,8-dihydro-5H-imidazo[1,5-a]pyrazine-1-carboxamide]",0.05 to 0.5 µM
9,"O=C(NCc1ccccc1)c1c2n(c(=O)n1-c1ccc(N3CC4CCC(C3)O4)cc1)CCN(C(=O)c1ccc(Br)c(Cl)c1)C2 [Compound 121, N-benzyl-7-(4-bromo-3-chloro-benzoyl)-2-[4-(8-oxa-3-azabicyclo[3.2.1]octan-3-yl)phenyl]-3-oxo-6,8-dihydro-5H-imidazo[1,5-a]pyrazine-1-carboxamide]",0.05 to 0.5 µM
10,"O=C(NCc1ccccc1)c1c2n(c(=O)n1-c1ccc(N3CC(O)(C(F)(F)F)C3)cc1)CCN(C(=O)c1ccc(Br)c(Cl)c1)C2 [Compound 118, N-benzyl-7-(4-bromo-3-chloro-benzoyl)-2-[4-[3-hydroxy-3-(trifluoromethyl)azetidin-1-yl]phenyl]-3-oxo-6,8-dihydro-5H-imidazo[1,5-a]pyrazine-1-carboxamide]",0.05 to 0.5 µM
11,C[C@H]1Cn2c(c(C(=O)NCc3ccccc3-c3ccncn3)n(-c3ccc(OC[C@@H](O)C(F)(F)F)cc3)c2=O)CN1C(=O)c1ccc(Br)c(C(F)(F)F)c1 (stereo in doubt) [Compound 62b],0.05 to 0.5 µM
12,"CC1Cn2c(c(C(=O)NCc3ccccc3-c3ncccn3)n(-c3ccc4nn(C[C@@H](O)C(F)(F)F)cc4c3)c2=O)CN1C(=O)c1ccc(Br)c(C(F)(F)F)c1 (single isomer, unassigned) [Compound 105a]",< 0.05 µM
13,"C[C@@H]1Cn2c(c(C(=O)NCc3ccccc3-c3cccnn3)n(-c3ccc(OC[C@H](O)C(F)(F)F)cc3)c2=O)CN1C(=O)c1ccc(Br)c(C(F)(F)F)c1 (mixture of isomers) [Compound 67a, (6RS)-7-[4-bromo-3-(trifluoromethyl)benzoyl]-6-methyl-3-oxo-N-[(2-pyridazin-3-ylphenyl)methyl]-2-[4-[(2S)-3,3,3-trifluoro-2-hydroxy-propoxy]phenyl]-6,8-dihydro-5H-imidazo[1,5-a]pyrazine-1-carboxamide]",0.05 to 0.5 µM
14,"CC1Cn2c(c(C(=O)NCc3ccccc3-c3ccncn3)n(-c3ccc(OC4CC4)cc3)c2=O)CN1C(=O)c1ccc(Br)c(Cl)c1 (single isomer, unassigned) [Compound 9a, 7-(4-bromo-3-chloro-benzoyl)-2-[4-(cyclopropoxy)phenyl]-6-methyl-3-oxo-N-[(2-pyrimidin-4-ylphenyl)methyl]-6,8-dihydro-5H-imidazo[1,5-a]pyrazine-1-carboxamide]",0.05 to 0.5 µM
15,"CCC(=O)COc1ccc(-n2c(C(=O)NCc3ccccc3-c3ncccn3)c3n(c2=O)CC(C)N(C(=O)c2ccc(Br)c(C(F)(F)F)c2)C3)cc1 (single isomer, unassigned) [Compound 70a]",0.05 to 0.5 µM
